Measurements taken from patent publication US10966996B2, “Glechoma longitube extract, preparation method for same, and use thereof in sugar reduction, weight loss, and lipid reduction” (SHANGHAI INSTITUTE OF MATERIA MEDICA CHINESE ACADEMY OF …, priority 2014, dated 2021).
Entries after “also recorded” stand apart in the source; their conditions may differ.

System: db/db mice
Experiment: long term administration of Compound I in db/db mice
Format: in vivo
Conditions: 50 mg/kg once a day
Description: After the end of the acute experiment, each group of mice undergone long term administration experiment following the grouping in below: equal volume of distilled water was given to control group of mice; Compound I at the dosage of 50 mg/kg was given to administration group; DDP4 inhibitor, Sitagliptin, at 10 mg/kg was intragastric administrated to positive control group. Dosage volume was 10 ml/kg, once a day for 4 weeks. Weight, blood glucose, and dietary change of the mice were monitored every week. The improvement of diabetic symptom of spontaneous diabetes mellitus type 2 model db/db mice by long term administration of Compound I was evaluated.

[1] = two weeks after the administration

O=C(O)C1O[C@@H](OC2C(O)[C@H](O)C(C(=O)O)O[C@H]2Oc2cc(O)c3c(=O)cc(-c4ccc(O)c(O)c4)oc3c2)C(O)C(O)[C@@H]1O (stereo partly drawn) [Compound I, luteolin-7-O-[β-glucuronosyl(1→2)β-glucuronic acid]]
weight and diet of the mice: did not significantly affect the weight and diet of the mice
fasting blood glucose [1]: significantly decreased; also recorded: lowered fasting blood glucose of mice
instant blood glucose [1]: significantly decreased; also recorded: lowered instant blood glucose of mice
